From publication PMC4301837, “Aldosterone synthase inhibition: cardiorenal protection in animal disease models and translation of hormonal effects to human subjects” (Journal of Translational Medicine, 2014)
Where two headings read alike, the source gives them in different places. Marks after values point to notes of the source that are not given here.

Assays:
in vitro [1] = settings: human, plasma
in vivo [2] = settings: male, Sprague-Dawley, rat, plasma, po
Experimental: (§1) All animal procedures were conducted in accordance with an approved Novartis Animal Care and Use Committee protocol and the Guide for the Care and Use of Laboratory Animals as described previously [21]. Male S-D rats (~500 g) were purchased from Taconic Farms (Germantown, NY, USA) and acclimatized in the Novartis vivarium (12 h light/dark cycle; 72°F; 55% relative humidity) for at least 7 days before being used in experiments. Rats were provided normal chow (Harlan Teklad 8604) and water ad libitum except for a partial fast before and during an experiment.
(§2) Both rats and monkeys were surgically instrumented with chronically indwelling femoral venous and arterial catheters to allow intravenous administration of substances and repeated blood sampling.
(§3) All pharmacokinetic parameters were derived from concentration–time data by non-compartmental analyses and were calculated using WinNonlin (Enterprise, Version 5.2; Pharsight Corporation, Palo Alto, CA, USA).

[3] = molecular target: recombinant rat 11β-hydroxylase (CYP11B1) (Rattus norvegicus, UniProt P15393); assay: biochemical
Experimental: Recombinant rat CYP11B2 and CYP11B1 enzymes were prepared similarly. All cell lines were maintained in Dulbecco’s modified Eagle’s medium supplemented with 10% fetal bovine serum, 0.5× antibiotic, 800 μg/mL geneticin and 250 μg/mL hygromycin (double-selection medium; all from Invitrogen, Carlsbad, CA, USA).
Human CYP11B2 and CYP11B1 assays were performed as described previously [20]. The rat and monkey assays were conducted similarly, using 11-DOC as substrate.
(§4) Half-maximal inhibitory concentration (IC50) values were derived using a non-linear least-squares curve-fitting program (XLfit; ID Business Solutions Inc., Bridgewater, NJ, USA).
Aldosterone concentration was measured using 96-well plates. Each test sample was incubated with 0.02 µCi D-[1,2,6,7-^3H(N)]aldosterone (PerkinElmer, Boston, MA, USA) and 0.2 µg anti-aldosterone antibody (ATCC, Manassas, VA, USA) in phosphate-buffered saline containing 0.1% Triton X-100, 0.1% bovine serum albumin, and 12% glycerol (in a total volume of 200 µL) at room temperature for 1 h. Anti-mouse polyvinyltoluene (PVT) scintillation proximity assay (SPA) beads (50 µL: GE Health Sciences, Piscataway, NJ, USA) were then added to each well and incubated overnight at room temperature prior to counting in a Microbeta plate counter (PerkinElmer). […] The amount of aldosterone, cortisol or corticosterone was calculated by comparison with a standard curve.

[4] = molecular target: 11β-hydroxylase (CYP11B1), rat adrenal homogenate (Rattus norvegicus, UniProt P15393); assay: biochemical
Experimental: (§5) Rat adrenal homogenates were prepared from the adrenal glands of male Sprague-Dawley (S-D) rats as described previously [21]. Monkey CYB11B2 and CYB11B1 homogenates were prepared from the adrenal glands of female cynomolgous monkeys. Monkey adrenal gland tissue was minced and homogenized on ice in a glass tissue grinder in 1 mL of ice-cold homogenization buffer per 100 mg tissue (adding 2.7 mmol/L CaCl2 and one ethylenediaminetetraacetic acid (EDTA)-free protease inhibitor tablet per 50 mL buffer) [20]. The homogenized material was centrifuged at 450 g for 5 min at 4°C, and the supernatant brought to a final glycerol concentration of 5%, flash-frozen in liquid nitrogen, and stored at −80°C until analysis. Aldosterone, cortisol and corticosterone concentrations were quantified using 96-well plate assays (see Additional file 1).
(§6) The rat and monkey assays were conducted similarly, using 11-DOC as substrate.
as §4
(§7) Aldosterone concentration was measured using 96-well plates. […] The amount of aldosterone, cortisol or corticosterone was calculated by comparison with a standard curve.

[5] = system: dTG rats overexpressing human renin and angiotensinogen; type: in vivo; settings: dTG rats, LCI699 3–100 mg/kg/day
Text: To determine the effects of inhibiting aldosterone synthase in an experimental model of rapidly progressive RAS-driven hypertension with cardiac and renal damage, we used dTG rats overexpressing human renin and angiotensinogen, as previously described [22]. dTG rats are characterized by high circulating levels of human renin, Ang II and aldosterone, left ventricular (LV) hypertrophy, and rapidly progressive cardiac and renal disease with moribundity or death occurring on average by 2 months of age.
dTG rats were bred from their respective single transgenic lines at Novartis under a license agreement with the Max-Delbruck-Centrum fur Molekulare Medizin (Berlin-Buch, Germany). Age-matched male S-D rats were bred by Taconic Farms (Germantown, NY, USA). This background strain for the dTG rats served as healthy controls. Rats were maintained on a 12-h light/dark cycle at 72°F with 55% relative humidity and were provided normal food (Harlan Teklad 8604) and water ad libitum.
In studies in young dTG rats, water consumption was measured and urine collected for renal biomarkers 24 hours before the terminal experiment. On the final experimental day, rats were anesthetized to allow for echocardiographic examination. A carotid artery was then cannulated for direct recording of arterial pressure and heart rate. Blood (aortic puncture) and organ/tissue samples were collected, and the animal was euthanized.
Echocardiographic images were acquired with a Vivid 7 (GE Healthcare, Milwaukee, WI, USA) instrument and an M12L (GE Healthcare) linear probe (14 MHz) with appropriate frame rates (M-mode: 164.8 frames per second (fps); 2D mode: 210.3 fps; TDI mode: 365.5 fps). Images were analyzed offline with EchoPAC™ Dimension software (GE Healthcare).
Hearts were perfused in situ with KCl (50 mmol/L), which quickly arrested the heart and depolarized the myocytes allowing for a more standardized and reproducible assessment of myocardial cell size. Hearts were fixed in 10% formalin. Myocyte cross-sectional area was assessed on sections cut at the mid-papillary level and stained with 1:100 FITC wheat-germ agglutinin (Vector Lab, catalog # FL-1021). Digital images were taken from the LV free wall, interventricular septum and papillary muscle regions. Image analysis of round cells (~500 per heart) on cross-section was performed to estimate mean cell size.
Serum and urinary electrolytes (Na^+, K^+, and Cl^−) and creatinine and blood urea nitrogen (BUN) were assessed with a Hitachi 917 chemistry analyzer. Urinary albumin concentration was measured with a commercially available enzyme immunoassay (EIA) kit (catalog # A05102; SPI-BIO, Montigny Le Bretonneux, France) according to the manufacturer’s instructions.

[6] = rat, over the tested dose range
Experimental: as §1, §2, §3

in vivo [7] = settings: male, cynomolgus monkey, plasma, po
[8] = system: ACTH-stimulated aldosterone and corticosterone synthesis; assay: animal or person; settings: Rattus norvegicus; for ED50: po
in vitro [9] = settings: rat, plasma
healthy male volunteers [10] = system: healthy male volunteers
healthy male volunteers [11] = assay: Human pharmacodynamics, multiple-dose phase; settings: for Plasma potassium, Δ Day2 vs baseline (Day −1) / Plasma potassium, Δ Day7 vs baseline (Day −1) / Plasma potassium, Δ Day14 vs Day 7 / Plasma sodium, Δ Day2 vs baseline (Day −1) / Plasma sodium, Δ Day7 vs baseline (Day −1) / Plasma sodium, Δ Day14 vs Day 7 / Urinary potassium, Δ Day 1 vs baseline (Day −1) / Urinary potassium, Δ Day 7 vs baseline (Day −1) / Urinary potassium, Δ Day 14 vs Day 7 / Urinary sodium, Δ Day 1 vs baseline (Day −1) / Urinary sodium, Δ Day 7 vs baseline (Day −1) / Urinary sodium, Δ Day 14 vs Day 7: ANCOVA mean
[12] = system: patients with primary aldosteronism; settings: 14 patients, 0.5 mg and 1 mg twice daily, 4 weeks; cited from earlier work
[13] = system: patients with essential hypertension; settings: cited from earlier work
[14] = system: Ang II-stimulated aldosterone release; parameters: method as in D. Rigel, personal communication; settings: dogs; ref D. Rigel, personal communication; read-out: EC50, inhibition of Ang II-stimulated aldosterone release; cited from earlier work
[15] = molecular target: aldosterone synthase (CYP11B2), rat adrenal homogenate (Rattus norvegicus, UniProt P30099); assay: biochemical
Experimental: as §5, §6, §4, §7

[16] = system: dTG rats with pre-established cardiorenal disease; assay: Survival study in older, enalapril-pre-treated dTG rats with established cardiorenal disease; type: in vivo, rat; settings: older dTG rats
Experimental: In order to study the effects of aldosterone inhibition on survival in older dTG rats with established cardiorenal disease, we modified the model by treating male dTG rats during their developmental stage (3–8 weeks of age) with the angiotensin-converting enzyme (ACE) inhibitor enalapril.
In experiments with older dTG rats (treated with enalapril for 5 weeks), urine collections and echocardiographic examinations were conducted as above but systolic arterial pressure was estimated in conscious rats by tail plethysmography (Model# 56-1, IITC Life Science Inc., Woodland Hills, CA, USA) using appropriate tail cuff sensors (B63), and restrainer (size 80), at a constant chamber temperature of 30°C.
In the survival studies, dTG rats were euthanized if they became moribund. Moribundity was defined as a decrease in body weight of ≥ 20% from “baseline” or two consecutive days of observable hematuria. The study endpoint was the age of the animal at death or at moribundity requiring euthanization.

[17] = molecular target: aldosterone synthase (CYP11B2), monkey adrenal homogenate (Macaca fascicularis, UniProt A0A2K5UPL9); assay: biochemical
Experimental: as §5, §6, §4, §7

[18] = system: dTG rats overexpressing human renin and angiotensinogen; assay: Survival study in young dTG rats; type: in vivo, rat
ACTH-stimulated cortisol = settings: rhesus monkeys, cited from earlier work
clinical = settings: male, human, plasma; for half-life: t½
Experimental: Healthy male volunteers, 18–45 years of age and with a body mass index of 18–28 kg/m^2 were eligible for this study. Subjects had to be non-smokers with normal hepatic and renal function for inclusion. […] All subjects provided informed written consent before participating in any study procedures. The study was conducted at two centers in the Netherlands and one in Germany and was approved by the Independent Ethics Committee and/or Institutional Review Board for each study center (Stichting Beoordeling Ethiek Biomedisch Onderzoek, Assen, Netherlands; Ethics Committee of the Land, Berlin, Germany) and was conducted in accordance with Good Clinical Practice and the ethical principles of the Declaration of Helsinki.
This was a randomized, double-blind, placebo-controlled, interwoven single- and multiple-ascending-dose study. In the single-dose phase, five cohorts of eight subjects each were enrolled. […] Assessments were made throughout the treatment period, and at an end of study assessment 7 days post-dose.
The multiple-dose phase involved four cohorts, each of 18 subjects. […] Subjects were placed on a controlled sodium restricted diet from the day before dosing until 72 h post-dose and were housed at the study center for this period. Until Day 7, the diet was ~50–60 mEq Na^+/~50–60 mEq K^+. On the morning of Day 8, potassium in the diet was increased to ~100 mEq. Based on urinary electrolyte values obtained from placebo subjects on Day 7 and Day 14 respectively, the actual diet was ~95 ± 63 mEq Na^+/46 ± 12 mEq K^+ for the first week and ~86 ± 42 mEq Na^+/69 ± 25 mEq K^+ for the second week.
Blood samples for pharmacokinetic assessment were obtained pre-dose and at regular intervals up to 72 h post-dose in the single-dose phase of the study. In the multiple-dose phase, blood samples were taken on Day 1 and Day 14 at regular intervals up to 36 and 72 h post-dose, respectively, and pre-dose on Days 3, 4, 7 and 11. Blood samples (2 or 4 mL) were collected into an EDTA containing tube, plasma extracted and samples frozen at –70°C until analysis.
All subjects with quantifiable pharmacokinetic measurements were included in the pharmacokinetic data analysis. Pharmacokinetic parameters were analyzed separately for the single- and multiple-dose phases and were determined using non-compartmental analyses.

[19] = monkey, 15–150 μg/kg
Text: Male cynomolgus monkeys (Macaca fascicularis) were selected for their cooperation and ability to sit comfortably in chairs and were conditioned to remain in the chairs for extended periods before the studies began. On the day of the experiment, monkeys were removed from their home cages with a pole/collar device (Primate Products, Inc., Woodside, CA, USA), secured in their restraining chairs, and transported to the quiet study room. The monkeys remained in the chair for the duration of the experiment (up to 10 h), during which time an enrichment and feeding regimen was followed.
Compound doses in the monkey model are quoted as free base equivalents.
Six monkeys (4.9–8.8 kg) were selected and were divided into two groups of three animals. Experiments were not initiated until after at least 2 weeks of recovery from the catheter/vascular access port (VAP) surgeries. Thirty minutes before the start of the experiment, a Huber needle was inserted transdermally into the VAP for the collection of blood samples and injection of ACTH. Between samplings, catheters/VAPs were flushed with saline and kept patent with 10 U/mL heparin. […]
as §3

[20] = system: Ang-II-stimulated aldosterone synthesis; settings: rat, Ang II stimulation
Experimental: Male S-D rats (~500 g) were purchased from Taconic Farms (Germantown, NY, USA) and acclimatized in the Novartis vivarium (12 h light/dark cycle; 72°F; 55% relative humidity) for at least 7 days before being used in experiments. Rats were provided normal chow (Harlan Teklad 8604) and water ad libitum except for a partial fast before and during an experiment.
Study protocols for the rat models of Ang-II- and ACTH-stimulated aldosterone synthesis followed a published protocol [21]. For the Ang-II-infusion model, an initial loading dose of 300 ng/kg angiotensin II (Ang II) was followed by 100 ng/kg/min intravenous (i.v.) infusion for 9 h. […] After 1 h of Ang II or ACTH infusion, a blood sample was collected for determining the post-Ang II or ACTH ‘baseline’ (i.e., secretagogue-elevated) plasma aldosterone and corticosterone concentrations. […] In both models, infusion continued for a further 8 h.
Blood samples were centrifuged at 20,000g for 20 min at 4°C to separate out plasma, which was aliquoted and frozen at −70°C until required for analysis. Plasma aldosterone and cortisol concentrations from animal studies were measured using commercially available solid-phase ^125I radioimmunoassay kits (Coat-A-Count Aldosterone TKAL1; Coat-A-Count Cortisol TKCO1; Siemens Healthcare Diagnostic Products).

[21] = LCI699 0.5 mg, Day 1, mean ± SEM
[22] = 524 patients, 0.25 to 1 mg, 8 weeks
[23] = oral, single-dose phase, doses up to 200 mg

Chain of recombinant rat 11β-hydroxylase (CYP11B1) (P15393 25-499): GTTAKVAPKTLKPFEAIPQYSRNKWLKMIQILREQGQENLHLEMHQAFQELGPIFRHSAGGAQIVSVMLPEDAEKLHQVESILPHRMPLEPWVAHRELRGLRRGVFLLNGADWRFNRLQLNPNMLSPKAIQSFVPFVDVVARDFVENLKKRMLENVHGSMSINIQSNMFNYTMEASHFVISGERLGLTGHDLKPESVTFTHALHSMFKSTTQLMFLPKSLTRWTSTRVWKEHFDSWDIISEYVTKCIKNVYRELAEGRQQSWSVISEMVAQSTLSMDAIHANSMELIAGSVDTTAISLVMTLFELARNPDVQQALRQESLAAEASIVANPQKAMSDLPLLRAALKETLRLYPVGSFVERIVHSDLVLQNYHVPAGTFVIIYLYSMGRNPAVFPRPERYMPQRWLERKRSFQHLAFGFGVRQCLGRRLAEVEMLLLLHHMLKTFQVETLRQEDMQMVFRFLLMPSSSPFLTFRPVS
Chain of 11β-hydroxylase (CYP11B1), rat adrenal homogenate (P15393 25-499): as above
Chain of aldosterone synthase (CYP11B2), rat adrenal homogenate (P30099 35-510): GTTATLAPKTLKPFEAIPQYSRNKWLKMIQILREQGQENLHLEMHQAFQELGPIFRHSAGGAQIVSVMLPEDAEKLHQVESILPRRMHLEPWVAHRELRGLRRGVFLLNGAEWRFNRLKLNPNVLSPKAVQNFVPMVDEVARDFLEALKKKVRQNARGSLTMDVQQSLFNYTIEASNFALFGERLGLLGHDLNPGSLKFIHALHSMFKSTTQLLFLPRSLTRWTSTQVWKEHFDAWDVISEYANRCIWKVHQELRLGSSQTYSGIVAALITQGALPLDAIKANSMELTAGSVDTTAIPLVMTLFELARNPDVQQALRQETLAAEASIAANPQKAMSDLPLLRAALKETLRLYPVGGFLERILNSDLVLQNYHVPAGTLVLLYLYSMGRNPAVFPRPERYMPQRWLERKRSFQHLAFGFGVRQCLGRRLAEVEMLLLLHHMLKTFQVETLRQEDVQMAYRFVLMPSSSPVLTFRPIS
Chain of aldosterone synthase (CYP11B2), monkey adrenal homogenate (A0A2K5UPL9 1-503): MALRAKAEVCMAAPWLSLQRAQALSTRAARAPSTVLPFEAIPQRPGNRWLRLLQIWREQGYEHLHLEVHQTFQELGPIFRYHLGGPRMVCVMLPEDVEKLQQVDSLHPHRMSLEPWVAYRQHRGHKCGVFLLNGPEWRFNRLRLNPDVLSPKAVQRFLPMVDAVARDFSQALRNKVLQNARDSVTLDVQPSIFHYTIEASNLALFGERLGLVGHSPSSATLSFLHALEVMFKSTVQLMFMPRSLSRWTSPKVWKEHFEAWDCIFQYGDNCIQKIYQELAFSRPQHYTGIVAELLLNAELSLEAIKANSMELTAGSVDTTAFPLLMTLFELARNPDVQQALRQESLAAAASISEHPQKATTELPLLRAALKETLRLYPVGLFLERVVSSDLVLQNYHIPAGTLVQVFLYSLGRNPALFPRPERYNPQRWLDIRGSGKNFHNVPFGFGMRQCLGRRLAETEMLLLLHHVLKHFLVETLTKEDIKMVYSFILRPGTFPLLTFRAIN

Compound: N#Cc1ccc([C@H]2CCc3cncn32)c(F)c1 [LCI699]
- fraction unbound (in vitro [1]): 0.734
- half-life (in vivo [2]): 2 to 5 h
- IC50 [3]: 410 ± 5 nM
- IC50 [4]: 3050 nM
- effect on urinary corticosterone excretion [5]: reduced
- effect on LV fractional shortening ([5]; eplerenone 30 mg/kg): dose-dependently increased
- effect on myocardial cell size ([5]; eplerenone 30 mg/kg): normalized
- effect on BUN levels ([5]; eplerenone 30 mg/kg/day): dose-dependently normalized
- effect on mean arterial pressure ([5]; eplerenone 30 mg/kg/day): neither LCI699 nor eplerenone normalized arterial pressure
- effect on serum potassium ([5]; eplerenone 30 mg/kg/day): corrected serum potassium in a dose-dependent manner
- effect on urinary albumin excretion ([5]; eplerenone 30 mg/kg/day): dose-dependently normalized
- effect on urinary aldosterone excretion ([5]; eplerenone 30 mg/kg/day): reduced
- effect on urine output ([5]; eplerenone 30 mg/kg/day): dose-dependently normalized
- effect on LV weight ([5]; eplerenone 30 mg/kg, data not shown): reduced
- effect on water intake ([5]; data not shown): dose-dependently normalized
- dose proportionality of pharmacokinetics [6]: dose-proportional
- Tmax (in vivo [7]): 0.9 to 3.5 h
- half-life (in vivo [7]): 1 to 2 h
- ED50 ([8]; read-out: ED50 for inhibiting ACTH-stimulated aldosterone): 1.1 mg/kg
- ED50 ([8]; read-out: ED50 for inhibiting ACTH-stimulated corticosterone): 73 mg/kg
- EC50 ([8]; read-out: EC50 for inhibiting ACTH-stimulated aldosterone): 771 nM
- EC50 ([8]; read-out: EC50 for inhibiting ACTH-stimulated corticosterone): 36000 nM
- fraction unbound (in vitro [9]): 0.641
- plateau of maximal inhibition of plasma aldosterone (healthy male volunteers [10]; at the 10 mg single dose, no further reduction up to 200 mg): approximately 80%
- increase in 11-deoxycortisol (healthy male volunteers [10]; single dose 100 mg): 942%
- increase in 11-deoxycortisol (healthy male volunteers [10]; single dose 200 mg): 584%
- decrease in plasma cortisol (healthy male volunteers [10]; single dose 200 mg, 24 h post-dose, P = 0.029 vs placebo): 19%
- effect on plasma cortisol (healthy male volunteers [10]; single doses 3–100 mg): did not significantly alter
- reductions in 24-h urinary cortisol (healthy male volunteers [10]; single doses of 30, 100 or 200 mg): 34–42%
- Plasma potassium, Δ Day2 vs baseline (Day −1) (healthy male volunteers [11]; LCI699 0.5 mg once daily): +0.20 mEq/L
- Plasma potassium, Δ Day7 vs baseline (Day −1) (healthy male volunteers [11]; LCI699 0.5 mg once daily): +0.25^‡ mEq/L
- Plasma potassium, Δ Day14 vs Day 7 (healthy male volunteers [11]; LCI699 0.5 mg once daily): +0.05 mEq/L
- Plasma sodium, Δ Day2 vs baseline (Day −1) (healthy male volunteers [11]; LCI699 0.5 mg once daily): +0.23 mEq/L
- Plasma sodium, Δ Day7 vs baseline (Day −1) (healthy male volunteers [11]; LCI699 0.5 mg once daily): −1.71^‡ mEq/L
- Plasma sodium, Δ Day14 vs Day 7 (healthy male volunteers [11]; LCI699 0.5 mg once daily): +0.41 mEq/L
- Urinary potassium, Δ Day 1 vs baseline (Day −1) (healthy male volunteers [11]; LCI699 0.5 mg once daily): +9.2 mEq/24 h
- Urinary potassium, Δ Day 7 vs baseline (Day −1) (healthy male volunteers [11]; LCI699 0.5 mg once daily): +12.8 mEq/24 h
- Urinary potassium, Δ Day 14 vs Day 7 (healthy male volunteers [11]; LCI699 0.5 mg once daily): +20.2 mEq/24 h
- Urinary sodium, Δ Day 1 vs baseline (Day −1) (healthy male volunteers [11]; LCI699 0.5 mg once daily): +45.2^† mEq/24 h
- Urinary sodium, Δ Day 7 vs baseline (Day −1) (healthy male volunteers [11]; LCI699 0.5 mg once daily): +3.6 mEq/24 h
- Urinary sodium, Δ Day 14 vs Day 7 (healthy male volunteers [11]; LCI699 0.5 mg once daily): −25.5 mEq/24 h
- change in 24 h urinary aldosterone levels from baseline (healthy male volunteers [11]; LCI699 0.5 mg, Day 1): –39%
- reduction of 24 h urinary aldosterone (healthy male volunteers [11]; [21]): 39 ± 6%
- reduction of plasma aldosterone (healthy male volunteers [11]; [21]): 49 ± 3%
- change in pre-dose plasma ACTH from baseline (healthy male volunteers [11]; LCI699 0.5 mg, Day 6): −14.5%
- increase in PRA from baseline (healthy male volunteers [11]; LCI699 0.5 mg, Day 7): 106%
- increase in PRA compared with baseline (healthy male volunteers [11]; LCI699 0.5 mg, Day 14): 130%
- Mean pre-dose plasma aldosterone levels (healthy male volunteers [11]; LCI699 1 mg and 3 mg once daily, Day 14): 209 to 293 pg/mL
- Plasma potassium, Δ Day2 vs baseline (Day −1) (healthy male volunteers [11]; LCI699 1 mg once daily): +0.08 mEq/L
- Plasma potassium, Δ Day7 vs baseline (Day −1) (healthy male volunteers [11]; LCI699 1 mg once daily): +0.12* mEq/L
- Plasma potassium, Δ Day14 vs Day 7 (healthy male volunteers [11]; LCI699 1 mg once daily): −0.06 mEq/L
- Plasma sodium, Δ Day2 vs baseline (Day −1) (healthy male volunteers [11]; LCI699 1 mg once daily): −0.59 mEq/L
- Plasma sodium, Δ Day7 vs baseline (Day −1) (healthy male volunteers [11]; LCI699 1 mg once daily): −0.11 mEq/L
- Plasma sodium, Δ Day14 vs Day 7 (healthy male volunteers [11]; LCI699 1 mg once daily): −0.01 mEq/L
- Urinary potassium, Δ Day 1 vs baseline (Day −1) (healthy male volunteers [11]; LCI699 1 mg once daily): +9.7 mEq/24 h
- Urinary potassium, Δ Day 7 vs baseline (Day −1) (healthy male volunteers [11]; LCI699 1 mg once daily): +17.4* mEq/24 h
- Urinary potassium, Δ Day 14 vs Day 7 (healthy male volunteers [11]; LCI699 1 mg once daily): +4.2 mEq/24 h
- Urinary sodium, Δ Day 1 vs baseline (Day −1) (healthy male volunteers [11]; LCI699 1 mg once daily): +76.3^‡ mEq/24 h
- Urinary sodium, Δ Day 7 vs baseline (Day −1) (healthy male volunteers [11]; LCI699 1 mg once daily): +44.0 mEq/24 h
- Urinary sodium, Δ Day 14 vs Day 7 (healthy male volunteers [11]; LCI699 1 mg once daily): −3.6 mEq/24 h
- change in 24 h urinary aldosterone levels from baseline (healthy male volunteers [11]; LCI699 1 mg, Day 1): –39%
- change in pre-dose plasma ACTH from baseline (healthy male volunteers [11]; LCI699 1 mg, Day 6): −31.4%
- change in 24 h urinary aldosterone levels from baseline (healthy male volunteers [11]; LCI699 1 mg, Day 7): −12%
- increase in PRA from baseline (healthy male volunteers [11]; LCI699 1 mg, Day 7): 277%
- increase in PRA compared with baseline (healthy male volunteers [11]; LCI699 1 mg, Day 14): 327%
- Plasma sodium, Δ Day2 vs baseline (Day −1) (healthy male volunteers [11]; LCI699 3 mg once daily): −0.73* mEq/L
- Plasma sodium, Δ Day7 vs baseline (Day −1) (healthy male volunteers [11]; LCI699 3 mg once daily): −2.87^‡ mEq/L
- Plasma sodium, Δ Day14 vs Day 7 (healthy male volunteers [11]; LCI699 3 mg once daily): −0.45 mEq/L
- Urinary potassium, Δ Day 1 vs baseline (Day −1) (healthy male volunteers [11]; LCI699 3 mg once daily): +2.9 mEq/24 h
- Urinary potassium, Δ Day 7 vs baseline (Day −1) (healthy male volunteers [11]; LCI699 3 mg once daily): +12.2 mEq/24 h
- Urinary sodium, Δ Day 1 vs baseline (Day −1) (healthy male volunteers [11]; LCI699 3 mg once daily): +64.0^‡ mEq/24 h
- Urinary sodium, Δ Day 7 vs baseline (Day −1) (healthy male volunteers [11]; LCI699 3 mg once daily): +22.2 mEq/24 h
- Urinary sodium, Δ Day 14 vs Day 7 (healthy male volunteers [11]; LCI699 3 mg once daily): −17.2 mEq/24 h
- change in 24 h urinary aldosterone levels from baseline (healthy male volunteers [11]; LCI699 3 mg, Day 1): –66%
- change in pre-dose plasma ACTH from baseline (healthy male volunteers [11]; LCI699 3 mg, Day 6): −15.6%
- change in 24 h urinary aldosterone levels from baseline (healthy male volunteers [11]; LCI699 3 mg, Day 7): −44%
- increase in PRA from baseline (healthy male volunteers [11]; LCI699 3 mg, Day 7): 377%
- increase in trough 11-DOC levels from baseline (healthy male volunteers [11]; LCI699 3 mg, Day 7): 228%
- increase in PRA compared with baseline (healthy male volunteers [11]; LCI699 3 mg, Day 14): 238%
- increase in pre-dose ACTH levels compared with baseline (healthy male volunteers [11]; LCI699 10 mg): 193%
- increase in pre-dose plasma 11-deoxycortisol from baseline (healthy male volunteers [11]; LCI699 10 mg, Day 6): 508%
- reduction in 24 h urinary cortisol (healthy male volunteers [11]; LCI699 10 mg, Day 7, one subject (second subject no change)): > 70%
- plasma aldosterone following the 10 mg dose (healthy male volunteers [11]; LCI699 10 mg, data not shown): No further reduction
- change in trough 11-DOC levels (healthy male volunteers [11]; LCI699 0.5 or 1 mg, Day 7): no change
- effect on plasma or 24 h urinary cortisol (healthy male volunteers [11]; LCI699 0.5–3 mg, Day 1, 7 or 14): no significant effect
- effect on plasma and urinary aldosterone levels [12]: effectively reduced
- mean decrease in ambulatory systolic blood pressure [12]: 4 mmHg
- hypertensive patients with attenuated ACTH-stimulated cortisol response ([13]; 1 mg once daily): approximately 20%
- placebo-corrected reduction in ambulatory diastolic blood pressure [13, 22]: 3–6 mmHg
- placebo-corrected reduction in ambulatory systolic blood pressure [13, 22]: 6–9 mmHg
- subjects with suppressed ACTH-stimulated cortisol release ([13]; total daily dose of 1 mg): approximately 20%
- EC50 [14]: 41 nM
- IC50 [15]: 802 nM
- prolongation of median survival ([16]; 30 mg/kg/day in drinking water from 24 weeks of age, P = 0.07): 23 weeks
- treated rats that died suddenly ([16]; LCI699 30 mg/kg/day, n = 7): two of the seven
- IC50 [17]: 12 ± 1 nM
- doses at which survival was significantly prolonged ([18]; young dTG rats without established cardiorenal disease, P < 0.01): ≥ 10 mg/kg/day
- maximum median survival time ([18]; young dTG rats, dose–median survival curves): 9.5 weeks
- effect on ACTH-stimulated cortisol (ACTH-stimulated cortisol; 3 mg/kg i.v.): reduced ACTH-stimulated cortisol
- effect on ACTH-stimulated cortisol (ACTH-stimulated cortisol; i.v. 0.003–1 mg/kg): no effect
- Tmax (clinical; [23]): ~1 h
- half-life (clinical; oral, after both single and multiple doses): ~4 h
- half-life (clinical; [23]): ~4 h
- Tmax (clinical; po, 0.5–3 mg once daily oral): ~1 h
- dose proportionality of pharmacokinetics [19]: dose-proportional
- dose above which inhibition of stimulated plasma aldosterone shows an apparent plateau ([20]; oral): above 1 mg/kg
- Maximal reduction in plasma aldosterone from baseline ([20]; approximately 2 h after oral dosing): 80%
